Measured values reported in patent US20230295118A1 (EnhancedBio Inc., priority 2022, published 2023).
Read-outs that look alike come from different tables or passages of the source.

Assays:
[1] = test system: mantle cell lymphoma cell (Mino or JeKo-1); experiment: Antiproliferative effect, MTS cell viability assay; type: cell-based
Summary of the method: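 Mino cells treated with compounds at 0, 0.0001, 0.001, 0.01, 0.1, 1 μM for 72 h; palbociclib and abemaciclib as positive controls. Viability by MTS, formazan absorbance read at 490 nm.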

[2] = target: T1, CDK4 (Homo sapiens, UniProt P11802); experiment: CDK4 degradation (DC50, Dmax); type: cell-based
T1 construct: endogenous in cells

[3] = target: T2, CDK6 (Homo sapiens, UniProt Q00534); experiment: CDK6 degradation (DC50, Dmax); type: cell-based
T2 construct: endogenous in cells

[4] = test system: Mino xenograft tumor; experiment: In vivo tumor inhibition efficacy, Mino xenograft; settings: NOD/SCID mice, 20 mg/kg via oral gavage for 3 weeks; result in words
Procedure: Mino cells were obtained from American Type Culture Collection (ATCC, Manassas, VA). Cells were maintained in RPM 1640 (Life Technologies, Grand Island, NY) supplemented with 10% heat-inactivated fetal bovine serum (56° C. for 30 minutes), penicillin (10 000 units/mL; Sigma, St Louis, Mo), streptomycin (10 mg/mL; Sigma), gentamicin (50 mg/mL; Life Technologies), amphotericin B (25 mg/mL; Sigma), and L-glutamine (200 mM, 29.2 mg/mL; Life Technologies), culture, as previously described (29, 30). Mino cells (10 million) were subcutaneously implanted into the flank of NOD/SCID mice. When the average tumor volume reached approximately 300 cubic millimeters (mm^3), the following treatments were administered in cohorts of 5 mice for each treatment: vehicle alone, 20 mg/kg abemaciclib, 20 mg/kg Compound 90, or 20 mg/kg Compound 94 via oral gavage for 3 weeks. Tumor growth was monitored twice weekly by calipers and tumor volume was calculated using the equation: (½ (length×width^2)).

[5] = test system: CDK4/6; experiment: CDK4/6 degradation in A375 melanoma cells (FIG. 1); type: cell-based; settings: result in words
[6] = 72 h, mantle cell lymphoma cell (Mino or JeKo-1), MTS assay, read-out: IC50 (anti-proliferation)
[7] = Mino cells; 0-1 μM; 72 h; result in words

T1 sequence (P11802 whole entry): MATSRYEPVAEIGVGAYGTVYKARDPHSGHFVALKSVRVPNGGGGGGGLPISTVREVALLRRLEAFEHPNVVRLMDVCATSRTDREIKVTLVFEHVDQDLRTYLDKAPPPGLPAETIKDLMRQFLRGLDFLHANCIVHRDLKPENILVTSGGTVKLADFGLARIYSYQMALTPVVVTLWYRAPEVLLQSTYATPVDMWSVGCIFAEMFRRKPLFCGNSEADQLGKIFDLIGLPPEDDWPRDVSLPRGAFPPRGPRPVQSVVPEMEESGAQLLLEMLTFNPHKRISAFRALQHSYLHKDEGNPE
T2 sequence (Q00534 whole entry): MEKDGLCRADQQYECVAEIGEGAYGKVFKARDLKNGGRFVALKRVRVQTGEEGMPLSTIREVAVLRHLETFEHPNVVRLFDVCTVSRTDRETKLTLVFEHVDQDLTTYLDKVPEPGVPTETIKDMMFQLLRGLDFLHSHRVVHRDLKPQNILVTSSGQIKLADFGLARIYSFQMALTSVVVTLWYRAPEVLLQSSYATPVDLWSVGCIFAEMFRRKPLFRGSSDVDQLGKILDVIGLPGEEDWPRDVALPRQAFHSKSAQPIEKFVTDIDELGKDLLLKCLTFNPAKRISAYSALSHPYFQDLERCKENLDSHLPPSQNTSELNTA

SMILES: Cc1nc2c(F)cc(-c3nc(Nc4ccc(CN5CCN(CCNc6ccc7c(c6)C(=O)N(C6CCC(=O)NC6=O)C7=O)CC5)cn4)ncc3F)cc2n1C(C)C (centres unmarked) [Compound 90, 2-(2,6-dioxopiperidin-3-yl)-5-((2-(4-((6-((5-fluoro-4-(4-fluoro-1-isopropyl-2-methyl-1H-benzo[d]imidazol-6-yl)pyrimidin-2-yl)amino)pyridin-3-yl)methyl)piperazin-1-yl)ethyl)amino) isoindoline-1,3-dione]
- IC50 [1, 6]: < 50 nM
- inhibition of cell proliferation of Mino cells [1, 7]: dose-dependent inhibition of cell proliferation
- DC50 [2]: < 50 nM
- Dmax [2]: > 80%
- DC50 [3]: < 50 nM
- Dmax [3]: > 80%
- Mino xenograft tumor growth [4]: inhibiting Mino xenograft tumor growth

SMILES: CC(=O)c1c(C)c2cnc(Nc3ccc(N4CCN(C(=O)CNc5ccc6c(c5)C(=O)N(C5CCC(=O)NC5=O)C6=O)CC4)cn3)nc2n(C2CCCC2)c1=O (centres unmarked) [Compound 104, 5-((2-(4-(6-((6-acetyl-8-cyclopentyl-5-methyl-7-oxo-7,8-dihydropyrido[2,3-d]pyrimidin-2-yl)amino)pyridin-3-yl)piperazin-1-yl)-2-oxoethyl)amino)-2-(2,6-dioxopiperidin-3-yl)isoindoline-1,3-dione]
- IC50 [1, 6]: < 50 nM
- inhibition of cell proliferation of Mino cells [1, 7]: dose-dependent inhibition of cell proliferation
- DC50 [2]: 50 to 200 nM
- Dmax [2]: > 60%
- DC50 [3]: 50 to 200 nM
- Dmax [3]: > 60%
- CDK4/6 degradation [5]: dose-dependent CDK4/6 degradation

SMILES: Cc1nc2c(F)cc(-c3nc(Nc4ccc(CN5CCN(CC6CN(c7ccc8c(c7)C(=O)N(C7CCC(=O)NC7=O)C8=O)C6)CC5)cn4)ncc3F)cc2n1C(C)C (centres unmarked) [Compound 94, 2-(2,6-dioxopiperidin-3-yl)-5-(3-((4-((6-((5-fluoro-4-(4-fluoro-1-isopropyl-2-methyl-1H-benzo[d]imidazol-6-yl)pyrimidin-2-yl)amino)pyridin-3-yl)methyl)piperazin-1-yl)methyl)azetidin-1-yl)isoindoline-1,3-dione]
- IC50 [1, 6]: < 50 nM
- inhibition of cell proliferation of Mino cells [1, 7]: dose-dependent inhibition of cell proliferation
- DC50 [2]: < 50 nM
- Dmax [2]: > 80%
- DC50 [3]: < 50 nM
- Dmax [3]: > 80%
- Mino xenograft tumor growth [4]: inhibiting Mino xenograft tumor growth

SMILES: Cc1nc2c(F)cc(-c3nc(Nc4ccc(CN5CCN(CCCNc6ccc7c(c6)C(=O)N(C6CCC(=O)NC6=O)C7=O)CC5)cn4)ncc3F)cc2n1C(C)C (centres unmarked) [Compound 73, 2-(2,6-dioxopiperidin-3-yl)-5-((3-(4-((6-((5-fluoro-4-(4-fluoro-1-isopropyl-2-methyl-1H-benzo[d]imidazol-6-yl)pyrimidin-2-yl)amino)pyridin-3-yl)methyl)piperazin-1-yl)propyl)amino) isoindoline-1,3-dione]
- IC50 [1, 6]: < 50 nM
- inhibition of cell proliferation of Mino cells [1, 7]: dose-dependent inhibition of cell proliferation
- DC50 [2]: < 50 nM
- Dmax [2]: > 80%
- DC50 [3]: < 50 nM
- Dmax [3]: > 80%
- CDK4/6 degradation [5]: dose-dependent CDK4/6 degradation

SMILES: CC(=O)c1c(C)c2cnc(Nc3ccc(N4CCN(CC5CCN(c6ccc7c(c6)C(=O)N(C6CCC(=O)NC6=O)C7=O)CC5)CC4)cn3)nc2n(C2CCCC2)c1=O (centres unmarked) [Compound 65, 5-(4-((4-(6-((6-acetyl-8-cyclopentyl-5-methyl-7-oxo-7,8-dihydropyrido[2,3-d]pyrimidin-2-yl)amino)pyridin-3-yl)piperazin-1-yl)methyl)piperidin-1-yl)-2-(2,6-dioxopiperidin-3-yl) isoindoline-1,3-dione]
- IC50 [1, 6]: < 50 nM
- inhibition of cell proliferation of Mino cells [1, 7]: dose-dependent inhibition of cell proliferation
- DC50 [2]: < 50 nM
- Dmax [2]: > 80%
- DC50 [3]: < 50 nM
- Dmax [3]: > 80%

SMILES: CC(=O)c1c(C)c2cnc(Nc3ccc(N4CCN(C5CCN(C(=O)N6CCN(c7ccc8c(c7)C(=O)N(C7CCC(=O)NC7=O)C8=O)CC6)CC5)CC4)cn3)nc2n(C2CCCC2)c1=O (centres unmarked) [Compound 35, 5-(4-(4-(4-(6-((6-acetyl-8-cyclopentyl-5-methyl-7-oxo-7,8-dihydropyrido[2,3-d]pyrimidin-2-yl)amino)pyridin-3-yl)piperazin-1-yl)piperidine-1-carbonyl)piperazin-1-yl)-2-(2,6-dioxopiperidin-3-yl)isoindoline-1,3-dione]
- IC50 ([1]; mantle cell lymphoma cell (Mino or JeKo-1); MTS assay, 72 h; read-out: IC50 (anti-proliferation)): 50 to 200 nM
- DC50 [2]: 50 to 200 nM
- Dmax [2]: > 60%
- DC50 [3]: > 200 nM
- Dmax [3]: > 60%

SMILES: Cc1nc2c(F)cc(-c3nc(Nc4ccc(CN5CCN(CC6CCN(c7ccc(C(=O)NC8CCC(=O)NC8=O)cc7)CC6)CC5)cn4)ncc3F)cc2n1C(C)C (centres unmarked) [Compound 151, N-(2,6-dioxopiperidin-3-yl)-4-(4-((4-((6-((5-fluoro-4-(4-fluoro-1-isopropyl-2-methyl-1H-benzo[d]imidazol-6-yl)pyrimidin-2-yl)amino)pyridin-3-yl)methyl)piperazin-1-yl)methyl)piperidin-1-yl)benzamide]
- IC50 [1, 6]: < 50 nM
- DC50 [2]: 50 to 200 nM
- Dmax [2]: > 80%
- DC50 [3]: 50 to 200 nM
- Dmax [3]: > 60%

SMILES: Cc1nc2c(F)cc(-c3nc(Nc4ccc(CN5CCN(C6CN(c7ccc8c(c7)C(=O)N(C7CCC(=O)NC7=O)C8=O)C6)CC5)cn4)ncc3F)cc2n1C(C)C (centres unmarked) [Compound 147, 2-(2,6-dioxopiperidin-3-yl)-5-(3-(4-((6-((5-fluoro-4-(4-fluoro-1-isopropyl-2-methyl-1H-benzo[d]imidazol-6-yl)pyrimidin-2-yl)amino)pyridin-3-yl)methyl)piperazin-1-yl)azetidin-1-yl)isoindoline-1,3-dione]
- IC50 [1, 6]: 50 to 200 nM
- DC50 [2]: < 50 nM
- Dmax [2]: > 60%
- DC50 [3]: 50 to 200 nM
- Dmax [3]: > 60%

SMILES: CC(=O)c1c(C)c2cnc(Nc3ccc(N4CCN(C(=O)N5CCC(CCC6CCN(c7ccc8c(c7)CN(C7CCC(=O)NC7=O)C8=O)CC6)CC5)CC4)cn3)nc2n(C2CCCC2)c1=O (centres unmarked) [Compound 26, 3-(5-(4-(2-(1-(4-(6-((6-acetyl-8-cyclopentyl-5-methyl-7-oxo-7,8-dihydropyrido[2,3-d]pyrimidin-2-yl)amino)pyridin-3-yl)piperazine-1-carbonyl)piperidin-4-yl)ethyl)piperidin-1-yl)-1-oxoisoindolin-2-yl)piperidine-2,6-dione]
- IC50 [1, 6]: 50 to 200 nM
- DC50 [2]: > 200 nM
- Dmax [2]: > 50%
- DC50 [3]: > 200 nM
- Dmax [3]: > 50%

SMILES: Cc1nc2c(F)cc(-c3nc(Nc4ccc(CC5CCN(CC6CN(c7ccc8c(c7)C(=O)N(C7CCC(=O)NC7=O)C8=O)C6)CC5)cn4)ncc3F)cc2n1C(C)C (centres unmarked) [Compound 139, 2-(2,6-dioxopiperidin-3-yl)-5-(3-((4-((6-((5-fluoro-4-(4-fluoro-1-isopropyl-2-methyl-1H-benzo[d]imidazol-6-yl)pyrimidin-2-yl)amino)pyridin-3-yl)methyl)piperidin-1-yl)methyl)azetidin-1-yl)isoindoline-1,3-dione]
- IC50 [1, 6]: < 50 nM
- DC50 [2]: < 50 nM
- Dmax [2]: > 80%
- DC50 [3]: < 50 nM
- Dmax [3]: > 80%

SMILES: CC(=O)c1c(C)c2cnc(Nc3ccc(N4CCN(CCCNc5ccc6c(c5)C(=O)N(C5CCC(=O)NC5=O)C6=O)CC4)cn3)nc2n(C2CCCC2)c1=O (centres unmarked) [Compound 49, 5-((3-(4-(6-((6-acetyl-8-cyclopentyl-5-methyl-7-oxo-7,8-dihydropyrido[2,3-d]pyrimidin-2-yl)amino)pyridin-3-yl)piperazin-1-yl)propyl)amino)-2-(2,6-dioxopiperidin-3-yl) isoindoline-1,3-dione]
- IC50 [1, 6]: < 50 nM
- inhibition of cell proliferation of Mino cells [1, 7]: dose-dependent inhibition of cell proliferation
- DC50 [2]: < 50 nM
- Dmax [2]: > 80%
- DC50 [3]: < 50 nM
- Dmax [3]: > 80%
- CDK4/6 degradation [5]: dose-dependent CDK4/6 degradation

SMILES: Cc1nc2c(F)cc(-c3nc(Nc4ccc(CC5CCN(CC6CCN(c7ccc(NC8CCC(=O)NC8=O)cc7)CC6)CC5)cn4)ncc3F)cc2n1C(C)C (centres unmarked) [Compound 160, 3-((4-(4-((4-((6-((5-fluoro-4-(4-fluoro-1-isopropyl-2-methyl-1H-benzo[d]imidazol-6-yl)pyrimidin-2-yl)amino)pyridin-3-yl)methyl)piperidin-1-yl)methyl)piperidin-1-yl)phenyl)amino) piperidine-2,6-dione]
- IC50 [1, 6]: < 50 nM
- DC50 [2]: < 50 nM
- Dmax [2]: > 80%
- DC50 [3]: < 50 nM
- Dmax [3]: > 80%
